Converted amounts (≈) assume the structure as drawn.
Assays:
[1] = biological target: T1, AChE from electric eel (Electrophorus electricus) (Electrophorus electricus, UniProt O42275); assay: HPTLC-(Ox)-AChE-I assay, spray method (AChE sprayed onto plates); assay type: biochemical
T1 construct: purchased Sigma-Aldrich GmbH (Steinheim, Germany)
Method: (§1) LiChrospher 10 × 20 cm HPTLC Silica gel 60 F254s plates (Merck, Darmstadt, Germany) with a layer thickness of 170–190 µm and spherical silica particles with a size of 7 µm were used. The HPTLC plates were immersed twice in 2-propanol for 20 min, each time followed by a drying step at room temperature for 20 min. The plates then were pre-developed with methanol, dried for 20 min at room temperature, heated at 105 °C for 20 min, and stored in a desiccator for further use. The automatic TLC Sampler 4 (ATS 4, CAMAG AG, Muttenz, Switzerland) was used for sample application. The desired sample volumes were sprayed as 6-mm-wide bands onto the HPTLC plates with an application speed of 300 nL/s. The distances of the exterior bands from the edges of the plates were 15 mm. The distance from the bottom edge was 8 mm for all bands. Methanol was used as rinsing solvent. The following further application parameters were used: filling speed 15 µL/s, pre-dosage volume 200 nL, retraction volume 200 nL, rinsing vacuum time 4 s, filling vacuum time 0 s, rinsing cycles 2, and filling cycles 1. The development of the HPTLC plates was realized by the Automated Multiple Development 2 (AMD 2, CAMAG, Muttenz, Switzerland). The OTPs, their oxons, and environmental samples were separated with an eluent mixture of cyclohexane, dichloromethane, and acetone in different proportions and with increasing migration distances (Fig. S2). After each development step, a drying step of 3 min under vacuum followed. The final migration distance was 80 mm and the whole procedure took approximately 45 min. In addition, a simpler development process was used containing only the last step of the previous described method.
(§2) The following AChE-I assay was performed in parts according to Mendoza et al., Stütz et al., and Weins and Jork. AChE was buffered in TRIS/HCl at a pH of 7.8 (2.5 U/mL). The AChE solution was either sprayed onto the HPTLC plates with a glass reagent sprayer until the plates were evenly moist (approx. 10 mL) or the plates were immersed in the AChE solution using the Chromatogram Immersion Device 3 (CID 3, CAMAG, Muttenz, Switzerland). The immersion volume, speed, time, and depth were approx. 200 mL, 2.5 cm/s, 2 s, and approx. 85 mm, respectively. Afterward, the plates were placed separately in closed plastic boxes, which contained paper towels moistened with water to gain a saturated atmosphere. An incubation at 37 °C for 5 min followed. The substrate indoxyl acetate was freshly prepared in methanol at a concentration of 20 mg/mL and 5 mL was sprayed onto the HPTLC plates with a glass reagent sprayer. During 45-min incubation time at room temperature, AChE cleaves the substrate into indoxyl and acetate. The indoxyl reacts with oxygen to the blue indigo dye. When AChE was inhibited, no indigo was produced and the spot stayed white. The TLC Scanner 3 (CAMAG, Muttenz, Switzerland) was used to scan each track on the plates at 670 nm using the fluorescence mode without optical filter. The CAMAG-embedded software Wincats (Vers. 1.4.9) was used to provide chromatograms of each track and to evaluate inhibition zones.
Several amounts of an OTP mix and an oxon mix were applied on HPTLC plates (Tab. S2) and tested as described in the “Combination of HPTLC and AChE-inhibition assay” section. Three plates were used for each dilution series. The application volume was 10 µL for investigating OTPs with following oxidation and 100 µL for testing OTPs without following oxidation. The application volume for the oxons was 10 µL. They were tested without oxidation step also in triplicates. The peak heights were used for evaluation. Only peaks that have a signal-to-noise ratio ≥ 3 were considered in the evaluation. The height next to the respective peak defines the noise.

[2] = biological target: T1, AChE from electric eel (Electrophorus electricus); assay: HPTLC-(Ox)-AChE-I assay, immersion method (plates immersed in AChE solution); assay type: biochemical; conditions: without oxidation
Method: as §1
as §2, with “After chromatographic development, 10 mL of freshly prepared NBS (100 µg/mL) was sprayed onto the HPTLC plates with a glass reagent sprayer, followed by a 5-min incubation at room temperature. The following” for “The following”
Several amounts of an OTP mix and an oxon mix were applied on HPTLC plates (Tab. S2) and tested as described in the “Combination of HPTLC and AChE-inhibition assay” section. Three plates were used for each dilution series. The application volume was 10 µL for investigating OTPs with following oxidation and 100 µL for testing OTPs without following oxidation. The application volume for the oxons was 10 µL. They were tested without oxidation step also in triplicates. The peak heights were used for evaluation. Only peaks that have a signal-to-noise ratio ≥ 3 were considered in the evaluation. The height next to the respective peak defines the noise. […]

[3] = biological target: T1, AChE from electric eel (Electrophorus electricus); assay: Recovery of AChE-I effect peak area in spiked water samples after SPE and HPTLC-Ox-AChE-I (spray); conditions: for Recovery of the effect peak area related to positive control (100%): spiked 100 ng OTP, SPE, 10 ng/spot, NBS oxidation, spray, ± SD, n = 4; for AChE-I effect recoveries in comparison to the positive control, range over samples: samples from stormwater retention basin and receiving stream, after SPE and HPTLC-Ox-AChE-I
Method: The samples were enriched by SPE within 24 h after sampling. Moreover, the field blank and water for a SPE blank were enriched in the same way. For additional matrix investigations, 1 mL malathion, parathion, and chlorpyrifos (100 ng/mL in methanol) were spiked into native samples taken in August 2020 and a water control before being loaded on the SPE cartridges. The cartridges (150 mg, Oasis HLB 6 cc, Waters GmbH, Eschborn, Germany) were conditioned with methanol (2 × 5 mL) and equilibrated with water (2 × 5 mL), before being loaded with 1000 ± 5 mL sample (the exact volume was determined by weighting) through a polytetrafluoroethylene tube. After drying the cartridges under vacuum, they were stored at − 18 °C until further usage. The cartridges were eluted with methanol (5 × 5 mL) that was evaporated afterward at 60 °C under a gentle nitrogen gas stream. The dried extracts were redissolved in 1 mL methanol to achieve a nominal 1000-fold enrichment.
The extracts, spiked samples, positive controls (PC: mix of malathion, parathion, and chlorpyrifos), and blanks were tested with the HPTLC-Ox-AChE-I method as described in the “Combination of HPTLC and AChE-inhibition assay” section. Each sample was tested in duplicates on two HPTLC plates (n = 4). The application volume was 100 µL resulting in a PC of 2000 ng/spot. The resulting amounts for the matrix investigation were 1000 and 10 ng/spot for the PCs and 10 ng/spot for the spiked samples. The matrix investigation was performed with and without the oxidation step. Excel was used to relate the peak areas of the spiked samples to the peak areas of the PCs (10 ng/spot). Differences between both approaches (oxidation and no oxidation) were shown by comparing the results of the spiked samples and PCs.

[4] = biological target: T1, AChE from electric eel (Electrophorus electricus); assay: AChE-inhibition microtiter assay (Ellman, 96-well, with or without NBS oxidation); assay type: biochemical; conditions: no oxidation, 4-PL fit, n = 4
Method: Stock solutions (1 mg/mL) of NBS and ascorbic acid were each freshly prepared before the test and then diluted to 10 µg/mL and 100 µg/mL, respectively. The assay was performed with modifications according to Ellman’s method. OTPs, oxons, water, and methanol blanks (15 µL) were each mixed with 15 µL of NBS (10 µg/mL) in a 96-well plate. After an incubation at room temperature for 5 min, the reaction was stopped by adding 15 µL ascorbic acid (100 µg/mL). For the test setup without oxidation, OTPs, oxons, water, and methanol blanks (15 µL) were mixed with 30 µL water per well. Subsequently, 200 µL of a DTNB solution (0.15 mM), buffered in TRIS/HCl at a pH of 7.4, was added to each well of both test setups. Then, 20 µL of an AChE solution (0.5 U/mL), also buffered in TRIS/HCl at a pH of 7.4, was added. An incubation at 30 °C for 30 min without shaking followed. An ATCL solution (0.8 mM) was freshly prepared with water and 30 µL per well was added after incubation. During another incubation at room temperature for 30 min, ATCL was cleaved by AChE into thiocholine and acetic acid. Thiocholine reacts with DTNB to 2-nitro-5-thiobenzoate. The absorbance of the yellow-colored anion was photometrically measured at 405 nm (Sunrise Remote, Tecan Group AG, Männedorf, Schweiz).
Dilution series with eight concentrations of the three OTPs and related oxons (Tab. S1) were freshly prepared from stock solutions (1–10 mg/mL) in methanol. The OTPs and oxons were tested in duplicates with and without prior oxidation in two measurements as described in the “AChE-inhibition microtiter assay” section. Eight water and eight methanol blanks were tested per test setup (oxidation and no oxidation). Of these, two were tested without AChE and two without ATCL. The mean AChE activity (absorption at 405 nm, n = 4) was related to the specific inhibitor dose. The statistic program Prism (version 5.00, Graph Pad Software, San Diego, USA) was used to generate dose–response curves (4-PL fit) and to determine inhibition concentrations (ICs) for the three OTPs and related oxons. The 95% confidence intervals of the curves and the standard deviations of the mean AChE activity were also calculated. The lower boundary of the curves is fixed to 0 and the highest mean activity defines 100%.

[5] = OTPs 100 µL, oxons 10 µL applied, peak heights, n = 3
[6] = spray method, without oxidation
[7] = spray method, without oxidation, OTPs 100 µL, oxons 10 µL applied, peak heights, n = 3
[8] = Spiked water (ultrapure water control)
[9] = sampling point Stormwater basin

T1 sequence (O42275 24-633): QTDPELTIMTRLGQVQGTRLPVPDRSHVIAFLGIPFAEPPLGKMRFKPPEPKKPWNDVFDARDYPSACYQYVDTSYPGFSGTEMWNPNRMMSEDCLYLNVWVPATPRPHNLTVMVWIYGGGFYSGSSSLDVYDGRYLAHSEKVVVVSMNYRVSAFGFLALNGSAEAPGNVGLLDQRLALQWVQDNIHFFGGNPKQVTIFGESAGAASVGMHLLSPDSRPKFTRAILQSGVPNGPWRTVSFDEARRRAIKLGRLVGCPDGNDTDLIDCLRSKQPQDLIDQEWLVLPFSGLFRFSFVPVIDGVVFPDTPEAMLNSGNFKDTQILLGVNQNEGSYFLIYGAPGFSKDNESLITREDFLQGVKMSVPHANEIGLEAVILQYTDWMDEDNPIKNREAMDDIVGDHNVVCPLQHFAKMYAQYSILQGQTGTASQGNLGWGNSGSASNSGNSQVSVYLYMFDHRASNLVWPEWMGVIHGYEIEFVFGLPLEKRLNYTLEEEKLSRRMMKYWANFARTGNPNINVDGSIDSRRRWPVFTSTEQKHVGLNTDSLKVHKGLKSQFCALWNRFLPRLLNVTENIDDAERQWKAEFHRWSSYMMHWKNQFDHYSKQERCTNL

| Structure (SMILES) | Effect of higher NBS concentration on AChE on the HPTLC plate ([1]; 1 mg/mL NBS tested for oxidation on HPTLC plate, application method not stated) | LOD immersion method (first detected AChE-I peak with signal-to-noise ratio ≥ 3) [2] [ng/spot] | IC10 (10% AChE inhibition), best fit [2, 5] [ng/spot] | IC20 (20% AChE inhibition), best fit [2, 5] [ng/spot] | IC50 (50% AChE inhibition), best fit [2, 5] [ng/spot] | IC80 (80% AChE inhibition), best fit [2, 5] [ng/spot] | LOD spray method (first detected AChE-I peak with signal-to-noise ratio ≥ 3) [1, 6] [ng/spot] | IC10 (10% AChE inhibition), best fit [1, 7] [ng/spot] | IC20 (20% AChE inhibition), best fit [1, 7] [ng/spot] | IC50 (50% AChE inhibition), best fit [1, 7] [ng/spot] | IC80 (80% AChE inhibition), best fit [1, 7] [ng/spot] | Recovery of the effect peak area related to positive control (100%) [3, 8] [%] | Recovery of the effect peak area related to positive control (100%) ([3]; sampling point Downstream) [%] | Recovery of the effect peak area related to positive control (100%) [3, 9] [%] | Recovery of the effect peak area related to positive control (100%) ([3]; sampling point Upstream) [%] | IC80 ([4]; read-out: IC20 (inhibition concentration for 20% AChE activity), best fit) [µg/mL] | IC20 ([4]; read-out: IC80 (inhibition concentration for 80% AChE activity), best fit) [µg/mL] | AChE-I effect recoveries in comparison to the positive control, range over samples [3] |
| --- | --- | --- | --- | --- | --- | --- | --- | --- | --- | --- | --- | --- | --- | --- | --- | --- | --- | --- |
| O=C1CCC(=O)N1Br [NBS, N-Bromosuccinimide] | lower activity or inhibition of AChE | – | – | – | – | – | – | – | – | – | – | – | – | – | – | – | – | – |
| CCOC(=O)CC(SP(=S)(OC)OC)C(=O)OCC (stereo not shown) [Malathion, malathion] | – | 250 | 313 | 536 | 1343 | 3363 | 250 | 212 | 493 | 2096 | 8910 | 85 ± 6 | 87 ± 12 | 81 ± 8 | 92 ± 11 | – | – | – |
| CCOP(=O)(OCC)Oc1ccc([N+](=O)[O-])cc1 [Paraoxon, paraoxon] | – | – | 0.60 | 0.99 | – | 5.4 | – | 0.79 | 1.2 | – | 5.9 | – | – | – | – | 0.071 (≈ 0.258 µM) | 0.016 (≈ 0.0581 µM) | – |
| CCOP(=S)(OCC)Oc1ccc([N+](=O)[O-])cc1 [Parathion, parathion] | – | 500 | – | – | – | – | 100 | – | – | – | – | 74 ± 3 | 79 ± 13 | 75 ± 9 | 82 ± 10 | – | – | 75–82% |
| CCOP(=S)(OCC)Oc1nc(Cl)c(Cl)cc1Cl [Chlorpyrifos, chlorpyrifos] | – | 500 | – | – | – | – | 250 | – | – | – | – | 63 ± 4 | 69 ± 5 | 74 ± 5 | 78 ± 7 | – | – | 69–78% |

Source: paper PMC9124651, “High-performance thin-layer chromatography in combination with an acetylcholinesterase-inhibition bioassay with pre-oxidation of organothiophosphates to determine neurotoxic effects in storm, waste, and surface water” (Analytical and Bioanalytical Chemistry, 2022)
